Data on one compound can be found in publication PMC2725291, “Genetic and Molecular Basis of Individual Differences in Human Umami Taste Perception” (PLoS ONE, 2009).

The assay deals with T1, TAS1R1-12H-372A/TAS1R3 -757R (Homo sapiens, UniProt Q7RTX0+Q7RTX1, C757R/Q12H).
T1 construct: expressed in transfected cells; host or cells: HEK293
T1 sequence (Q7RTX1 21-841): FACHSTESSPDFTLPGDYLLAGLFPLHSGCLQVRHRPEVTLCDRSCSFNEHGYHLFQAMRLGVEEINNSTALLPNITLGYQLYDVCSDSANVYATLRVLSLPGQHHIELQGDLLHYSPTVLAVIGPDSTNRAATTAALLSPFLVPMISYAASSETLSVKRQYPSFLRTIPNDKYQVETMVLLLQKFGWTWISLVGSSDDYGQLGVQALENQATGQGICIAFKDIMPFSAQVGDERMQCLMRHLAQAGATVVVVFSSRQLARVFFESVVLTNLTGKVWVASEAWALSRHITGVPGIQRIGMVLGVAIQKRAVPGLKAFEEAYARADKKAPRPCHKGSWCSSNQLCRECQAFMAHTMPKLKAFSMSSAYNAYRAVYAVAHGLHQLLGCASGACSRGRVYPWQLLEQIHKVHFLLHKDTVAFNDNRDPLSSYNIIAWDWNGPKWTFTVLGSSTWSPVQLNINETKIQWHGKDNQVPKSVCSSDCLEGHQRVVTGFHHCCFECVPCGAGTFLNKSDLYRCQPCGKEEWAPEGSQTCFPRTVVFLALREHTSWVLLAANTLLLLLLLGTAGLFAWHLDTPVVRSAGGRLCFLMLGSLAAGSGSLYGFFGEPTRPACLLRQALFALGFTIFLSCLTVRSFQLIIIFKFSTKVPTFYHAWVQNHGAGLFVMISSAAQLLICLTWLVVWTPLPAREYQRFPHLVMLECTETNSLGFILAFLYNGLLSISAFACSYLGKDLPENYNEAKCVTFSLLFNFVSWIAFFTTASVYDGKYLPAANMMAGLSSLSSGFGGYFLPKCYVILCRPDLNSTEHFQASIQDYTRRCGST
T1 sequence (Q7RTX0 21-852 C757R): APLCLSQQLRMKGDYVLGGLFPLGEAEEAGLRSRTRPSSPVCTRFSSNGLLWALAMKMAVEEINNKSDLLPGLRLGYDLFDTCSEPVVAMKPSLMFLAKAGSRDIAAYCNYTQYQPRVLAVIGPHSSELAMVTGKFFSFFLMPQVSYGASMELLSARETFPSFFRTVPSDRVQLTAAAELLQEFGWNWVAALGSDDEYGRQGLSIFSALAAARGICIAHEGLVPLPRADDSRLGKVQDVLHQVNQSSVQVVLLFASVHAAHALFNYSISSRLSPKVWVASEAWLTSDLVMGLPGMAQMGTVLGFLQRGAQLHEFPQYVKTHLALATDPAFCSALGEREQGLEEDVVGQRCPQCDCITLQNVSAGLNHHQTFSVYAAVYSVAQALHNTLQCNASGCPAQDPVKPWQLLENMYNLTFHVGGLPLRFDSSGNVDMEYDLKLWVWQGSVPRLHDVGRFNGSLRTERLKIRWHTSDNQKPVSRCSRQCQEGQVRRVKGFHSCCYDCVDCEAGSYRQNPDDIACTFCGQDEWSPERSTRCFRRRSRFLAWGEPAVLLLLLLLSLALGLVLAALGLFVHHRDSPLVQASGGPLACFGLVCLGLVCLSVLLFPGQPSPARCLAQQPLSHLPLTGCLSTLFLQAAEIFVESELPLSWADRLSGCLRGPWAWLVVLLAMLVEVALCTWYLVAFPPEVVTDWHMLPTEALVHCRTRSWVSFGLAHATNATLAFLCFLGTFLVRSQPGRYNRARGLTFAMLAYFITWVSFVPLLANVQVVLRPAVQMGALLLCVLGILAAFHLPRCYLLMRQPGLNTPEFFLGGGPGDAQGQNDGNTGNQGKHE
Nature of the assay: Ca2+ imaging in HEK293 cells, Q12H amino acid substitution of TAS1R1. The format is cell-based. The following applies: vs. TAS1R1-12Q-372A/TAS1R3-757R; Figure S3. The source says: Intronless human TAS1Rs and Gαl6 expression constructs were generated in the pEF-DEST51 Gateway vector (Invitrogen) by genomic DNA-based methods. To subclone each gene into the vector, a Kozak cassette was introduced at the 5′ end before the start codon. Gαl6 chimeras were generated by PCR with mutagenic primers. The carboxyl-terminal tail of Gαl6, five-residue (EINLL) was replaced by its counterpart from Gαi3 (ECGLY; Gα16-i3), Gαgust (DCGLF; Gα16-gust), and Gα16-gust44 was generated as described. The integrity of all DNA constructs was confirmed by DNA sequencing. Point mutations in TAS1Rs were made using the same overlapping PCR strategy with mutagenic primers. […]
HEK293 cells were cultured at 37°C under a humidified atmosphere containing 5% CO2 in Dulbecco's modified Eagle's medium supplemented with 10% fetal bovine serum. […] The transfection efficiencies were estimated by visualizing DsRed fluorescence (data not shown) or by immunocytochemistry of TAS1R3, and were typically 50∼55% (Figure S4). […]
Another imaging system, FlexStation II (Molecular Devices) was used for TAS1R mutant analysis. […] Fluorescence changes (excitation at 485 nm, emission at 525 nm, and cutoff at 515 nm) were monitored at 2 sec intervals; 50 µl of HBSS supplemented with 2×tastants were added at 30 sec, and scanning was continued for an additional 120 sec. […]

On to `N[C@@H](CCC(=O)O)C(=O)[O-].[Na+]` [MSG, monosodium glutamate], for which the “effect of the Q12H amino acid mutation of TAS1R1 on responses” value is “did not affect”.
